Source: patent publication US10155021B2, “Antimicrobial 4-oxoquinolizines” (Emergent Product Development Gaithersburg Inc., priority 2011, dated 2018)
Read-outs that look alike come from different tables or passages of the source.

Assays:
A. baumannii A472 [1] = experiment: MIC without and with sub-inhibitory polymyxin B (Example 4); assay type: cell-based, Acinetobacter baumannii; conditions: Acinetobacter baumannii, A472, A. baumannii A472, without polymyxin B, read-out: MIC without PB
A. baumannii A390 [2] = experiment: MIC determination for Acinetobacter strains (Example 3); assay type: cell-based; conditions: LEV R, CIP R, MRP R, IPM I, AMK R, TET I
A. baumannii A329 = experiment: Preliminary MBC without and with sub-inhibitory polymyxin B (Example 4); assay type: cell-based, Acinetobacter baumannii; conditions: Acinetobacter baumannii
A. baumannii J2 = experiment: as above; assay type: cell-based, Acinetobacter baumannii; conditions: Acinetobacter baumannii, J2, read-out: MBC without PB
A. baumannii A473 [3] = experiment: MIC determination for Acinetobacter strains (Example 3); assay type: cell-based; conditions: LEV R, CIP R, MRP R, IMP R, AMK R, TET R
A. baumannii A473 [4] = experiment: MIC without and with sub-inhibitory polymyxin B (Example 4); assay type: cell-based, Acinetobacter baumannii; conditions: Acinetobacter baumannii, A473, A. baumannii A473; without polymyxin B; 1st experiment; read-out: MIC without PB
A. baumannii A390 [5] = experiment: Preliminary MBC without and with sub-inhibitory polymyxin B (Example 4); assay type: cell-based, Acinetobacter baumannii; conditions: Acinetobacter baumannii, A390, read-out: MBC without PB
A. baumannii ATCC 19606 [6] = experiment: as above; assay type: cell-based, Acinetobacter baumannii; conditions: Acinetobacter baumannii, ATCC19606, read-out: MBC without PB, A. baumannii ATCC 19606, without polymyxin B, preliminary MBC
A. baumannii A472 [7] = experiment: MIC determination for Acinetobacter strains (Example 3); assay type: cell-based; conditions: LEV R, CIP R, MRP I, IMP I, AMK R, TET R
[8] = tested on: resistant strains of A. baumannii and one strain of Acinetobacter sp.; experiment: MIC without and with sub-inhibitory polymyxin B, whole panel / MIC ranges (Example 4; also strains not listed separately); assay type: cell-based; conditions: for MIC: Acinetobacter baumannii, without polymyxin B, 2nd experiment
A. baumannii A489 [9] = experiment: Preliminary MBC without and with sub-inhibitory polymyxin B (Example 4); assay type: cell-based, Acinetobacter baumannii; conditions: Acinetobacter baumannii, A489, read-out: MBC without PB, A. baumannii A489, without polymyxin B, 2nd experiment
A. baumannii ATCC 19606 [10] = experiment: MIC determination for Acinetobacter strains (Example 3); assay type: cell-based; conditions: ATCC19606, reference strain
A. baumannii ATCC 19606 [11] = experiment: MIC without and with sub-inhibitory polymyxin B (Example 4); assay type: cell-based, Acinetobacter baumannii; conditions: Acinetobacter baumannii, ATCC19606, A. baumannii ATCC 19606, without polymyxin B, read-out: MIC without PB
A. baumannii A489 [12] = experiment: MIC determination for Acinetobacter strains (Example 3); assay type: cell-based; conditions: LEV R, CIP R, MRP R, IMP R, AMK R, TET R
[13] = tested on: Acinetobacter spp. H064200250; experiment: as above; assay type: cell-based, Acinetobacter sp.; conditions: LEV R, CIP R, MRP R, IMP I
[14] = tested on: Acinetobacter sp. (H064200250); experiment: MIC without and with sub-inhibitory polymyxin B (Example 4); assay type: cell-based; conditions: Acinetobacter, without polymyxin B, read-out: MIC without PB
A. baumannii A472 [15] = experiment: Preliminary MBC without and with sub-inhibitory polymyxin B (Example 4); assay type: cell-based, Acinetobacter baumannii; conditions: Acinetobacter baumannii, A472, read-out: MBC without PB, A. baumannii A472, without polymyxin B, 2nd experiment
[16] = tested on: 11 strains of A. baumannii and one strain of Acinetobacter sp.; experiment: Preliminary MBC without and with sub-inhibitory polymyxin B, whole panel (Example 4; also strains not listed separately); assay type: cell-based; conditions: Acinetobacter baumannii
A. baumannii A390 [17] = experiment: MIC without and with sub-inhibitory polymyxin B (Example 4); assay type: cell-based, Acinetobacter baumannii; conditions: Acinetobacter baumannii, A390, A. baumannii A390, without polymyxin B, read-out: MIC without PB
[18] = tested on: Acinetobacter sp. (H064200250); experiment: Preliminary MBC without and with sub-inhibitory polymyxin B (Example 4); assay type: cell-based; conditions: Acinetobacter, read-out: MBC without PB
Experimental: The plates were incubated for 18-20 hours at 37° C. The MBC was read as the lowest concentration at which colony growth was ca. 90% less than the positive control (i.e. usually where single colonies or no colonies were observed).

A. baumannii A401 [19] = experiment: MIC without and with sub-inhibitory polymyxin B (Example 4); assay type: cell-based, Acinetobacter baumannii; conditions: Acinetobacter baumannii, A401, A baumannii A 401; without polymyxin B; 2nd experiment; visual reading; read-out: MIC without PB
A. baumannii A401 [20] = experiment: Preliminary MBC without and with sub-inhibitory polymyxin B (Example 4); assay type: cell-based, Acinetobacter baumannii; conditions: Acinetobacter baumannii, A401, read-out: MBC without PB
A. baumannii A489 [21] = experiment: MIC without and with sub-inhibitory polymyxin B (Example 4); assay type: cell-based, Acinetobacter baumannii; conditions: Acinetobacter baumannii, A489, A. baumannii A489, without polymyxin B, read-out: MIC without PB

COc1c(N2C[C@@H]3CCCN[C@@H]3C2)c(F)cc2c(=O)c(C(=O)O)cn(C3CC3)c12 [Moxifloxacin, reference compound]
8 to 64 µg/mL: MIC ([8]; 11 strains, read-out: MIC range without PB 14-10-2008 n = 11)
64 µg/mL: MBC (A. baumannii A329; A329, read-out: MBC without PB, A. baumannii A329, without polymyxin B, 1st experiment) | MIC ([8]; NCTC13301, A. baumannii NCTC 13301, visual reading, read-out: MIC without PB) | MBC ([16]; NCTC13301, read-out: MBC without PB, A. baumannii NCTC 13301, without polymyxin B, 2nd experiment)
32 µg/mL: MBC (A. baumannii A329; A329, read-out: MBC without PB, A. baumannii A329, without polymyxin B, 2nd experiment) | MBC (A. baumannii J2) | MBC ([16]; NCTC13301, read-out: MBC without PB, A. baumannii NCTC 13301, without polymyxin B, 1st experiment) | MBC ([16]; read-out: MBC without PB, A. baumannii A14, without polymyxin B, 1st experiment) | MBC ([16]; read-out: MBC without PB, A. baumannii A14, without polymyxin B, 2nd experiment)
16 µg/mL: MIC (A. baumannii A472 [1]; 1st experiment) | MIC (A. baumannii A472 [1]; 2nd experiment, visual reading) | MIC (A. baumannii A390 [2]) | MIC (A. baumannii A473 [3]) | MIC (A. baumannii A473 [4]) | MBC (A. baumannii A390 [5]) | MIC (A. baumannii A472 [7]) | MBC (A. baumannii A489 [9]) | MIC (A. baumannii A489 [12]) | MIC [13] | MIC ([14]; Acinetobacter spp. H064200250 (OXA51), 2nd experiment, visual reading) | MIC ([14]; Acinetobacter spp. H064200250, 1st experiment) | MBC (A. baumannii A472 [15]) | MIC (A. baumannii A390 [17]; 1st experiment) | MIC (A. baumannii A390 [17]; 2nd experiment, visual reading) | MBC [18] | MIC (A. baumannii A401 [19]) | MBC (A. baumannii A401 [20]) | MIC (A. baumannii A489 [21]; 1st experiment) | MIC (A. baumannii A489 [21]; 2nd experiment, visual reading)
0.5 µg/mL: MBC (A. baumannii ATCC 19606 [6]; 1st experiment) | MIC (A. baumannii ATCC 19606 [10]) | MIC (A. baumannii ATCC 19606 [11]; 1st experiment)
not significantly affected: fold greater activity (fold lower MIC) in presence of polymyxin B compared to without polymyxin B [8]
1 µg/mL: MBC (A. baumannii ATCC 19606 [6]; 2nd experiment) | MIC (A. baumannii ATCC 19606 [11]; 2nd experiment, visual reading)
